TGI and GI50 data for eleven molecules are collected here from PubChem BioAssay (NCI).

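The compound was tested at five concentrations on cells cultured in 96-well plates, with a 48-hour exposure period. The concentration for 50% growth inhibition is given as GI50. TGI is the concentration that stops growth completely.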

Common to all, as to test: NCI tumour cell line growth inhibition, 48 h
The test system of experiment [1] is HL-60(TB) leukemia.
Experiment [2] concerns UACC-257 melanoma.
Experiment [3] concerns SR leukemia.
Experiment [4] relates to HCC-2998 colon.
For experiment [5], the system named is OVCAR-3 ovarian.
The test system of experiment [6] is TK-10 renal.
Experiment [7] has as its system NCI-H226 lung.
Experiment [8] has as its system OVCAR-8 ovarian.
The test system of experiment [9] is U251 CNS.
Experiment [10] deals with MDA-MB-231 breast.

For the molecule `C=CC1(c2ccccc2Cl)N/C(=C/OCC)CO1` (stereo not drawn), the TGI in experiment [1], in experiment [2], in experiment [3], in experiment [4], in experiment [5] and in [6] was > 100 µM throughout. Moreover, the TGI in experiment [7], in experiment [8] and in [9] was > 100 µM in each case.

Regarding `FC(F)(F)c1[nH]ncc1-c1nc2c(N3CCCCC3)cc3[nH]ncc3c2c2c1CCCC2`, the GI50 in experiment [1] was 1.23 µM; in experiment [2] it was 1.09 µM; in experiment [3], 0.235 µM; in [4] it was 0.929 µM; in experiment [5] it was 1.07 µM; in experiment [6], 0.615 µM. Also, the GI50 was 0.806 µM in experiment [10], 0.825 µM in experiment [8] and 0.87 µM in experiment [9]. Moreover, the TGI is 3.32 µM in experiment [1]; 3.58 µM in experiment [2]; > 50 µM in [3]; 3.06 µM in experiment [4]; 3.14 µM in experiment [5]; > 50 µM in experiment [6]. Moreover, the results for the TGI in [10], in experiment [8] and in experiment [9] were 3.08 µM, > 50 µM and 5.67 µM, respectively.

`N.N.N.N.N.N#N.[Cl-].[Os+7]`: the GI50 in experiment [3], in [4], in experiment [5], in experiment [6], in experiment [7] and in experiment [8] was > 100 µM in each case. In experiment [9], the GI50 is > 100 µM. Also, the TGI in experiment [3], in experiment [4], in experiment [5], in experiment [6], in experiment [7] and in experiment [8] was > 100 µM each time. Also, the TGI in experiment [9] was > 100 µM.

Regarding `O=c1c2[nH]c3ccccc3c2nc2n1CCS2`, the GI50 was 17.5 µM in experiment [1]; > 100 µM in experiment [2]; > 100 µM in [4]; > 100 µM in experiment [5]; > 100 µM in [6]; > 100 µM in experiment [10]. Further, the GI50 in [7], in [8] and in [9] was > 100 µM each time. Also, the TGI in experiment [1], in experiment [2], in [4], in experiment [5], in [6] and in [10] was > 100 µM each time. Also, the TGI in experiment [7], in experiment [8] and in [9] was > 100 µM throughout.

For `C=CC[N+]1(CCO)CCN=C1CCCCCCCCCCCCC` (stereo not drawn), the GI50 was 1.51 µM in [1]; 1.76 µM in [2]; 1.37 µM in [4]; 1.99 µM in experiment [6]; 1.61 µM in experiment [10]; 1.7 µM in experiment [7]. Besides, the GI50 in [9] is 1.33 µM. Moreover, the TGI in [1] stood at 3.1 µM; in experiment [2], 3.27 µM; in experiment [4], 2.66 µM; in experiment [6] it was 3.4 µM; in experiment [10] it was 3.1 µM; in [7], 3.43 µM. The molecule also displayed a TGI in [9] of 2.6 µM.

Regarding `O=C(O)c1c([N+](=O)[O-])cc(C(F)(F)F)cc1[N+](=O)[O-]`, the TGI in experiment [1], in [2], in experiment [3], in experiment [5], in experiment [6] and in experiment [7] was > 100 µM throughout. Besides, the TGI in experiment [8] and in experiment [9] was > 100 µM in each case.

Regarding `C/C=C/C(=O)[C@@H](O)C(C)C`, the TGI in experiment [2], in experiment [3], in [4], in experiment [5], in [6] and in experiment [7] was > 100 µM in each case. For the same molecule, the TGI in experiment [8] and in [9] was > 100 µM in each case.

Consider `C=CC(=O)NCCOc1cccc(Nc2cc(NCCCNC(=O)C3CCC3)c(Br)cn2)c1`, for which the GI50 in experiment [1] is 0.989 µM; in experiment [2], 3.34 µM; in experiment [4], 2.49 µM; in experiment [5], 0.836 µM; in experiment [6] it was 1.6 µM; in experiment [10] it was 0.478 µM. The values for the GI50 in experiment [7], in experiment [8] and in experiment [9] were 0.613 µM, 1.82 µM and 0.851 µM, respectively. The TGI in experiment [1] is > 25 µM; in experiment [2] it was > 25 µM; in [4], 7.59 µM; in [5], 3.75 µM; in experiment [6] it was 7.77 µM; in [10], 1.48 µM. Further, the TGI in experiment [7] is > 25 µM; in experiment [8], > 25 µM; in experiment [9] it was 18.7 µM.

For the molecule `O=C(N[C@@H]1C=CCC[C@@H]1c1ccccc1)OCc1ccccc1`, the TGI in experiment [1] came to 34.6 µM; in experiment [2] it was 35.2 µM; in experiment [3], 41.7 µM; in experiment [4], 49.3 µM; in experiment [5], 31.2 µM; in experiment [6], 24.6 µM. Besides, the values for the TGI in experiment [7], in experiment [8] and in experiment [9] were 36.4 µM, 42.6 µM and 32.9 µM, respectively.

Take `CN(C)c1ccc(/C=C/c2ccnc3ccc4ccccc4c23)cc1`: the TGI is > 100 µM in experiment [1]; > 100 µM in experiment [2]; > 100 µM in experiment [3]; > 100 µM in experiment [5]; 49.9 µM in experiment [6]; > 100 µM in [10]. The TGI in [8] and in experiment [9] was > 100 µM throughout.

`O=C(c1ccco1)c1ccccc1C(=O)c1ccco1`: the TGI in [1], in [2], in experiment [3], in experiment [4], in experiment [5] and in experiment [6] was > 100 µM throughout. The TGI in experiment [7], in experiment [8] and in experiment [9] was > 100 µM in each case.
